Measured values taken from patent US20250163104A1, “MACROCYCLIC IMMUNOMODULATORS” (priority 2021, published 2025).
Where a SMILES comes first, the peptide text is derived from it. Bridges are numbered along the chain shown (N, C = ends). [ ]: non-standard residue; d: D form. The star is where a group is joined. ξ: configuration not given here. Phe(4-CONH2) = NC(=O)c1ccc(C[C@H](N)C(=O)O)cc1; Phe(4-COOH) = N[C@@H](Cc1ccc(C(=O)O)cc1)C(=O)O; Bip = N[C@@H](Cc1ccc(-c2ccccc2)cc1)C(=O)O; Phe(3-Me) = Cc1cccc(C[C@H](N)C(=O)O)c1; Phe(4-F) = N[C@@H](Cc1ccc(F)cc1)C(=O)O; Val(3-OH) = CC(C)(O)[C@H](N)C(=O)O; hArg = N=C(N)NCCCC[C@H](N)C(=O)O; 4Pal = N[C@@H](Cc1ccncc1)C(=O)O; Cha = N[C@@H](CC1CCCCC1)C(=O)O; Cit = NC(=O)NCCC[C@H](N)C(=O)O; Thr(3ξ) = CC(O)[C@H](N)C(=O)O; dDab = NCC[C@@H](N)C(=O)O; Carboxymethyl = O=C(O)C*; Orn = NCCC[C@H](N)C(=O)O; Dab = NCC[C@H](N)C(=O)O; Dap = NC[C@H](N)C(=O)O; NH(CH2)3NH2 = NCCCN*; Propargyl = C#CC*

These molecules were tested against T1, human PD-1 / PD-L1-Ig binding on Jurkat cell line over-expressing human PD-1 (Jurkat-PD-1) (Homo sapiens, UniProt Q15116) (assay: Jurkat-PD-1 Cell Binding High-Content Screening Assay (CBA)). Details: Jurkat-PD-1 cells, PE-labeled PD-L1-Ig 20 nM final; read-out: Jurkat HPD1_PDL1 IC50.
T1 construct: expressed in transfected cells; host or cells: Jurkat
T1 sequence (Q15116 25-288): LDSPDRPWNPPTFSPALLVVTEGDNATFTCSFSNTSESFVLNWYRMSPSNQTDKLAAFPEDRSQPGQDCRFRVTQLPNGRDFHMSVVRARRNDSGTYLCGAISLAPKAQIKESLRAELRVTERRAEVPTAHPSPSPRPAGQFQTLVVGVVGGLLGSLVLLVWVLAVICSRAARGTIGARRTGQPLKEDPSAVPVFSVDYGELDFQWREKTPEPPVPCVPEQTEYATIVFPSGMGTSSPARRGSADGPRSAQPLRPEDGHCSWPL
Format: cell-based
In short: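 Read-out: high-content imaging of PE-tagged PD-L1-Ig bound to Jurkat cells overexpressing human PD-1, after fixation with 4% paraformaldehyde and Hoechst 33342 nuclear staining. Ligand was used at 20 nM final for 1 hour, after a 2 h compound exposure at 37° C in serum-containing DMEM.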

**Q.** CC(C)C[C@@H]1NC(=O)[C@H](CC(N)=O)NC(=O)[C@@H](CC(C)C)NC(=O)[C@H](CN)NC(=O)[C@H](C(C)C)NC(=O)[C@H](Cc2ccc(-c3ccccc3)cc2)NC(=O)[C@H](C(C)C)NC(=O)[C@H](Cc2c[nH]c3ccccc23)NC(=O)[C@H](CC(=O)O)NC(=O)[C@H](Cc2ccc(C(=O)O)cc2)NC(=O)[C@H](Cc2ccc(OCC(=O)O)cc2)NC(=O)CSC[C@@H](C(=O)NCC(N)=O)NC(=O)[C@H](CO)NC(=O)[C@H](C(C)C)NC1=O [Compound 1288] ({CH2CO}-Y(Carboxymethyl)[Phe(4-COOH)]DWV[Bip]V[Dap][dL]NLVSCG-NH2; thioether N-14) was tested. Which IC50 did it give?
**A.** 38.9 nM

**Q.** How did the IC50 turn out when CC(C)C[C@H]1NC(=O)[C@H](CCCN)NC(=O)[C@H](CCCNC(N)=O)NC(=O)[C@H](Cc2ccc(-c3ccccc3)cc2)NC(=O)[C@H](C(C)C)NC(=O)[C@H](Cc2c[nH]c3ccccc23)NC(=O)[C@H](CC(=O)O)NC(=O)[C@H](CCC(=O)O)NC(=O)[C@H](CN)NC(=O)CSC[C@@H](C(=O)N[C@@H](C)C(N)=O)NC(=O)[C@H]([C@@H](C)O)NC(=O)[C@H](C(C)C)NC(=O)[C@H](CC2CCCCC2)NC(=O)[C@H](CCN)NC1=O [Compound 2121] ({CH2CO}-[Dap]EDWV[Bip][Cit][Orn][dL][Dab][Cha]VTCA-NH2; thioether N-14) was run?
**A.** 232 nM

**Q.** Which IC50 does the source give for Cc1cccc(C[C@@H]2NC(=O)[C@H](CC(=O)O)NC(=O)[C@H](Cc3ccc(OCC(=O)O)cc3)NC(=O)[C@H](Cc3ccc(F)cc3)NC(=O)CSC[C@@H](C(=O)N[C@H](CCN)C(N)=O)NC(=O)[C@H](CCC(=O)O)NC(=O)[C@H](C(C)(C)O)NC(=O)[C@H](CC3CCCCC3)NC(=O)[C@H](CCN)NC(=O)[C@@H](CC(C)C)NC(=O)[C@H](CCCN)NC(=O)[C@H](Cc3ccc(OCC(=O)O)cc3)NC(=O)[C@H](Cc3ccc(-c4ccccc4)cc3)NC(=O)[C@H](Cc3ccc(OCC(=O)O)cc3)NC2=O)c1 [Compound 2676] ({CH2CO}-[Phe(4-F)]Y(Carboxymethyl)D[Phe(3-Me)]Y(Carboxymethyl)[Bip]Y(Carboxymethyl)[Orn][dL][Dab][Cha][Val(3-OH)]EC[dDab]-NH2; thioether N-14) here?
**A.** 8.5 nM

**Q.** With Cc1cccc(C[C@@H]2NC(=O)[C@H](CC(=O)O)NC(=O)[C@H](Cc3ccc(C(N)=O)cc3)NC(=O)[C@H](Cc3ccncc3)NC(=O)CSC[C@@H](C(=O)N[C@@H](CCN)C(N)=O)NC(=O)[C@H](CO)NC(=O)[C@H](C(C)(C)O)NC(=O)[C@H](CC3CCCCC3)NC(=O)[C@H](CCN)NC(=O)[C@@H](CC(C)C)NC(=O)[C@H](CCCN)NC(=O)[C@H](Cc3ccc(OCC(=O)O)cc3)NC(=O)[C@H](Cc3ccc(-c4ccccc4)cc3)NC(=O)[C@H](Cc3ccc(C(=O)O)cc3)NC2=O)c1 [Compound 2627] ({CH2CO}-[4Pal][Phe(4-CONH2)]D[Phe(3-Me)][Phe(4-COOH)][Bip]Y(Carboxymethyl)[Orn][dL][Dab][Cha][Val(3-OH)]SC[Dab]-NH2; thioether N-14) as the molecule, how does the IC50 read?
**A.** 5 nM

**Q.** CC(C)C[C@@H]1NC(=O)[C@H](Cc2c[nH]c3ccccc23)NC(=O)[C@H](CC(=O)O)NC(=O)[C@H](Cc2ccc(C(=O)O)cc2)NC(=O)[C@H](Cc2ccc(OCC(=O)O)cc2)NC(=O)CSC[C@@H](C(=O)NCC(N)=O)NC(=O)[C@H](CO)NC(=O)[C@H](C(C)C)NC(=O)[C@H](CC(C)C)NC(=O)[C@H](CCN)NC(=O)[C@@H](CC(C)C)NC(=O)[C@H](CCCN)NC(=O)[C@H](C(C)C)NC(=O)[C@H](Cc2ccc(-c3ccccc3)cc2)NC1=O [Compound 1254] ({CH2CO}-Y(Carboxymethyl)[Phe(4-COOH)]DWL[Bip]V[Orn][dL][Dab]LVSCG-NH2; thioether N-14) was tested. Which IC50 did it give?
**A.** 7.4 nM

**Q.** C#CCOc1ccc(C[C@@H]2NC(=O)[C@H](Cc3cccc(C)c3)NC(=O)[C@H](CC(=O)O)NC(=O)[C@H](Cc3ccc(OCC(=O)O)cc3)NC(=O)[C@H](CCCNC(=N)N)NC(=O)CSC[C@@H](C(=O)N[C@@H](CCN)C(N)=O)NC(=O)[C@H](CCC(=O)O)NC(=O)[C@H](C(C)C)NC(=O)[C@H](CC3CCCCC3)NC(=O)[C@H](CCN)NC(=O)[C@@H](CC(C)C)NC(=O)[C@H](CCCN)NC(=O)[C@H](Cc3ccc(OCC(=O)O)cc3)NC(=O)[C@H](Cc3ccc(-c4ccccc4)cc3)NC2=O)cc1 [Compound 1818] ({CH2CO}-RY(Carboxymethyl)D[Phe(3-Me)]Y(Propargyl)[Bip]Y(Carboxymethyl)[Orn][dL][Dab][Cha]VEC[Dab]-NH2; thioether N-14) was tested. Which IC50 did it give?
**A.** 2.3 nM

**Q.** With CC[C@H](C)[C@@H]1NC(=O)[C@H](Cc2ccc(-c3ccccc3)cc2)NC(=O)[C@H](C(C)C)NC(=O)[C@H](Cc2cccc(C)c2)NC(=O)[C@H](CC(=O)O)NC(=O)[C@H](Cc2ccc(C(=O)O)cc2)NC(=O)[C@H](Cc2ccncc2)NC(=O)CSC[C@@H](C(N)=O)NC(=O)[C@H]([C@@H](C)O)NC(=O)[C@H](C(C)C)NC(=O)[C@H](CC2CCCCC2)NC(=O)[C@H](CCN)NC(=O)[C@@H](CC(C)C)NC(=O)[C@H](CCCN)NC1=O [Compound 1547] ({CH2CO}-[4Pal][Phe(4-COOH)]D[Phe(3-Me)]V[Bip]I[Orn][dL][Dab][Cha]VTC-NH2; thioether N-14) as the molecule, how does the IC50 read?
**A.** 15.9 nM

**Q.** Which IC50 does the source give for CCCC[C@H]1NC(=O)[C@H](CCCN)NC(=O)[C@H]([C@@H](C)CC)NC(=O)[C@H](Cc2ccc(-c3ccccc3)cc2)NC(=O)[C@H](C(C)C)NC(=O)[C@H](Cc2c[nH]c3ccccc23)NC(=O)[C@H](CC(=O)O)NC(=O)[C@H](Cc2ccc(OCC(=O)O)cc2)NC(=O)[C@H](Cc2ccncc2)NC(=O)CSC[C@@H](C(=O)N[C@@H](C)C(N)=O)NC(=O)[C@H]([C@@H](C)O)NC(=O)[C@H](C(C)C)NC(=O)[C@H](CC2CCCCC2)NC(=O)[C@H](CCN)NC1=O [Compound 1709] here?
**A.** 10.4 nM

**Q.** Which IC50 does the source give for CC[C@H](C)[C@@H]1NC(=O)[C@H](Cc2ccc(-c3ccccc3)cc2)NC(=O)[C@H](CC(C)C)NC(=O)[C@H](Cc2c[nH]c3ccccc23)NC(=O)[C@H](CC(=O)O)NC(=O)[C@H](Cc2ccc(OCC(=O)O)cc2)NC(=O)[C@H](CN)NC(=O)CSC[C@@H](C(=O)N[C@@H](C)C(N)=O)NC(=O)[C@H]([C@@H](C)O)NC(=O)[C@H](C(C)C)NC(=O)[C@H](CC(C)C)NC(=O)[C@H](CCN)NC(=O)[C@@H](CC(C)C)NC(=O)[C@H](CCCN)NC1=O [Compound 1370] ({CH2CO}-[Dap]Y(Carboxymethyl)DWL[Bip]I[Orn][dL][Dab]LVTCA-NH2; thioether N-14) here?
**A.** 6.4 nM

**Q.** For CC(C)C[C@H]1NC(=O)[C@H](CCCN)NC(=O)[C@H](C(C)C)NC(=O)[C@H](Cc2ccc(-c3ccccc3)cc2)NC(=O)[C@H](C(C)C)NC(=O)[C@H](Cc2c[nH]c3ccccc23)NC(=O)[C@H](CC(=O)O)NC(=O)[C@H](Cc2ccc(OCC(=O)O)cc2)NC(=O)[C@H](CN)NC(=O)CSC[C@@H](C(=O)N[C@@H](C)C(N)=O)NC(=O)[C@H](CCCCN)NC(=O)[C@H](C(C)C)NC(=O)[C@H](CC2CCCCC2)NC(=O)[C@H](CCN)NC1=O [Compound 1744] ({CH2CO}-[Dap]Y(Carboxymethyl)DWV[Bip]V[Orn][dL][Dab][Cha]VKCA-NH2; thioether N-14), which IC50 is on record?
**A.** 4.7 nM

**Q.** With CC(C)C[C@H]1NC(=O)[C@H](CCCN)NC(=O)[C@H](CCCN)NC(=O)[C@H](Cc2ccc(-c3ccccc3)cc2)NC(=O)[C@H](C(C)C)NC(=O)[C@H](Cc2c[nH]c3ccccc23)NC(=O)[C@H](CC(=O)O)NC(=O)[C@H](Cc2ccc(O)cc2)NC(=O)[C@H](CC(N)=O)NC(=O)CSC[C@@H](C(=O)N[C@@H](C)C(N)=O)NC(=O)[C@H]([C@@H](C)O)NC(=O)[C@H](C(C)C)NC(=O)[C@H](CC2CCCCC2)NC(=O)[C@H](CCN)NC1=O [Compound 1378] ({CH2CO}-NYDWV[Bip][Orn][Orn][dL][Dab][Cha]VTCA-NH2; thioether N-14) as the molecule, how does the IC50 read?
**A.** 13.7 nM

**Q.** Which IC50 does the source give for Cc1cccc(C[C@@H]2NC(=O)[C@H](CC(=O)O)NC(=O)[C@H](Cc3ccc(OCC(=O)O)cc3)NC(=O)[C@H](Cc3ccncc3)NC(=O)CSC[C@@H](C(=O)N[C@@H](CO)C(=O)NCCCN)NC(=O)[C@H](C(C)O)NC(=O)[C@H](C(C)(C)O)NC(=O)[C@H](CC3CCCCC3)NC(=O)[C@H](Cc3cnc[nH]3)NC(=O)[C@@H](CC(C)C)NC(=O)[C@H](CCCN)NC(=O)[C@H](Cc3ccc(OCC(=O)O)cc3)NC(=O)[C@H](Cc3ccc(-c4ccccc4)cc3)NC(=O)[C@H](Cc3ccc(OCC(=O)O)cc3)NC2=O)c1 (stereo partly drawn) [Compound 2647] ({CH2CO}-[4Pal]Y(Carboxymethyl)D[Phe(3-Me)]Y(Carboxymethyl)[Bip]Y(Carboxymethyl)[Orn][dL]H[Cha][Val(3-OH)][Thr(3ξ)]CS-{NH(CH2)3NH2}; thioether N-14) here?
**A.** 22.8 nM

**Q.** For Cc1cccc(C[C@@H]2NC(=O)[C@H](CC(=O)O)NC(=O)[C@H](Cc3ccc(OCC(=O)O)cc3)NC(=O)[C@H](CN)NC(=O)CSC[C@@H](C(=O)N[C@@H](C)C(N)=O)NC(=O)[C@H]([C@@H](C)O)NC(=O)[C@H](C(C)C)NC(=O)[C@H](CC3CCCCC3)NC(=O)[C@H](CCN)NC(=O)[C@@H](CC(C)C)NC(=O)[C@H](CCCN)NC(=O)[C@H](CCCNC(N)=O)NC(=O)[C@H](Cc3ccc(-c4ccccc4)cc3)NC(=O)[C@H](C(C)C)NC2=O)c1 [Compound 1208], which IC50 is on record?
**A.** 2.7 nM

**Q.** For Cc1cccc(C[C@@H]2NC(=O)[C@H](CC(=O)O)NC(=O)[C@H](Cc3ccc(OCC(=O)O)cc3)NC(=O)[C@H](CCCCNC(=N)N)NC(=O)CSC[C@@H](C(=O)N[C@@H](CCCCN)C(=O)N[C@@H](CO)C(N)=O)NC(=O)[C@H](CO)NC(=O)[C@H](C(C)C)NC(=O)[C@H](CC3CCCCC3)NC(=O)[C@H](CCN)NC(=O)[C@@H](CC(C)C)NC(=O)[C@H](CCCN)NC(=O)[C@H](CCCNC(N)=O)NC(=O)[C@H](Cc3ccc(-c4ccccc4)cc3)NC(=O)[C@H](C(C)C)NC2=O)c1 [Compound 2594] ({CH2CO}-[hArg]Y(Carboxymethyl)D[Phe(3-Me)]V[Bip][Cit][Orn][dL][Dab][Cha]VSCKS-NH2; thioether N-14), which IC50 is on record?
**A.** 13.1 nM
